Reference: paper PMC4155686, “Oleoyl Coenzyme A Regulates Interaction of Transcriptional Regulator RaaS (Rv1219c) with DNA in Mycobacteria*” (The Journal of Biological Chemistry, 2014)

Biological target: RaaS (Rv1219c) (Mycobacterium tuberculosis, UniProt O86312)
Assay: biochemical

RaaS (Rv1219c), sequence (O86312 whole entry): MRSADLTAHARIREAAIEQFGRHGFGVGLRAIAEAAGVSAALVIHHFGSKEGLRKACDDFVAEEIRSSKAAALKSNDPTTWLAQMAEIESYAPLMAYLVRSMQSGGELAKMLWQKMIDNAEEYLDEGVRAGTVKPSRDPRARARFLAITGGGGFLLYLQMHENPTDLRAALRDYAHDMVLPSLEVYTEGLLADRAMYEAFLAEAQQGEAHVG

With CCCCCCCC/C=C\CCCCCCCC(=O)SCCNC(=O)CCNC(=O)[C@H](O)C(C)(C)COP(=O)(O)OP(=O)(O)OC[C@H]1O[C@@H](n2cnc3c(N)ncnc32)[C@H](O)[C@@H]1OP(=O)(O)O [oleoyl-CoA] the Kd was 3.65 ± 0.28 µM.
